This passage reports EC50 results from US12723063B2, “GIPR-agonist compounds” (Eli Lilly and Company, priority 2019, dated 2026).

*1 amine or outer side, *2 acyl side, *3 side chain or, on linkers, in order; H or OH if unused. Where a SMILES comes first, the peptide text is derived from it. Side-chain parts run from the residue outwards. [ ]: non-standard residue; d: D form. The star is where a group is joined. C20 diacid = O=C(O)CCCCCCCCCCCCCCCCCCC(=O)*; C18 diacid = O=C(O)CCCCCCCCCCCCCCCCC(=O)*; γGlu = O=C(O)[C@H](CCC(=O)[*:2])N[*:1]; 4Pal = N[C@@H](Cc1ccncc1)C(=O)O; αMeL = CC(C)C[C@](C)(N)C(=O)O; Orn = NCCC[C@H](N)C(=O)O; AEEA = NCCOCCOCC(=O)O; Aib = CC(C)(N)C(=O)O

What all share (test): cAMP functional assay (HTRF) in HEK293 cells in presence of 0.1% casein
Common to all, as to type: cell-based

Assay [1] has as its target T1, human glucagon receptor (GcgR) (Homo sapiens, UniProt P47871).
T1 construct: expressed in transfected cells; host or cells: HEK293
The note with it: HEK293 cells expressing human GcgR, geometric mean, read-out: hGcgR cAMP Rel EC50 nM (SEM, n). On the procedure: (§1) Each receptor over-expressing cell line (20 μl) is treated with the test peptide in DMEM (Gibco Cat #31053) supplemented with 0.1% Casein (Sigma Cat #C4765), 250 μM IBMX, 1× GlutaMAX™ (Gibco Cat #35050), and 20 mM HEPES (HyClone Cat #SH30237.01) in a 20 μl assay volume. After incubating for 60 minutes at room temperature, the resulting increase in intracellular CAMP is quantitatively determined using the CisBio CAMP Dynamic 2 HTRF Assay Kit (62AM4PEJ). The Lysis buffer containing cAMP-d2 conjugate (20 μl) and the antibody anti-cAMP-Eu3+-Cryptate (20 μl) are then added to determine the cAMP level. After incubating 60 minutes at room temperature, HTRF signal is detected with an Envision 2104 plate reader (PerkinElmer). Fluorescent emission at 620 nm and at 665 nm is measured and the ratio between 620 nm and at 665 nm is calculated and then are converted to nM cAMP per well using a cAMP standard curve. Dose response curves of compounds are plotted as the percentage of stimulation normalized to minimum (buffer only) and maximum (maximum concentration of each control ligand) values and analyzed using a four parameter non-linear regression fit with a variable slope (Genedata Screener 13). EC50 is the concentration of compound causing half-maximal simulation in a dose response curve. A relative EC50 value is derived by non-linear regression analysis using the percent maximal response vs, the concentration of peptide added, fitted to a four-parameter logistic equation.
(§2) Intracellular cAMP levels are determined by extrapolation using a standard curve. Dose response curves of compounds are plotted as the percentage of stimulation normalized to minimum (buffer only) and maximum (maximum concentration of each control ligand) values and analyzed using a four-parameter non-linear regression fit with a variable slope (Genedata Screener 13). EC50 is the concentration of compound causing half-maximal simulation in a dose response curve. Each relative EC50 value for the geometric mean calculation is determined from a curve fitting.
(§3) Concentration response curves of compounds are plotted as the percentage of stimulation normalized to minimum (buffer only) and maximum (maximum concentration of each control ligand) values and analyzed using a four-parameter non-linear regression fit with a variable slope (Genedata Screener 13). EC50 is the concentration of compound causing half-maximal simulation in a dose response curve. […] The standard error of the mean is reported:
(§4) [formula] • The log transform accounts for the EC50 values falling on a multiplicative, rather than an arithmetic scale.
(§5) For illustration, as shown by Example 1, the peptide is tested in 8 runs of the hGIPR CAMP assay. […] Accordingly, each Example will use the geometric mean of those values to normalize the Example assay runs.

The target in assay [2] is T2, human glucose-dependent insulinotropic peptide receptor (GIPR) (Homo sapiens, UniProt P48546).
T2 construct: expressed in transfected cells; host or cells: HEK293
T2 sequence (P48546 22-466): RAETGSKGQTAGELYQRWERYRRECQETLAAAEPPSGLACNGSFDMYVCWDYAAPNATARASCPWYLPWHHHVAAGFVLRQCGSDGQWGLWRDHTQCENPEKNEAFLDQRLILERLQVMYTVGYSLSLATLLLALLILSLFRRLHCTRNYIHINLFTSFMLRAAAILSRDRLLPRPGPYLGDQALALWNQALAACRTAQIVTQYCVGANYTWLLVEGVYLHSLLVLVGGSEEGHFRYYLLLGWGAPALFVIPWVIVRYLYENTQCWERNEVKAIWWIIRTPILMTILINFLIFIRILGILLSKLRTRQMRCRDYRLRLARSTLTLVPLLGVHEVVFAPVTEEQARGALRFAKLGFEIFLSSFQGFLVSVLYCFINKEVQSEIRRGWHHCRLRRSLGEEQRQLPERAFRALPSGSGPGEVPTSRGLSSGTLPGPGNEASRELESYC
Conditions: HEK293 cells expressing human GIPR, geometric mean, read-out: hGIPR cAMP Rel EC50 nM (SEM, n). On the procedure:
as §1, §2, §3, §4, §5

Assay [3] concerns the target T3, human GLP-1 receptor (GLP-1R) (Homo sapiens, UniProt P43220).
T3 construct: expressed in transfected cells; host or cells: HEK293
The note with it: HEK293 cells expressing human GLP-1R, geometric mean, read-out: hGLP1R cAMP Rel EC50 nM (SEM, n). On the procedure: as §1, §2, §3, §4, §5

T3 sequence (P43220 24-463): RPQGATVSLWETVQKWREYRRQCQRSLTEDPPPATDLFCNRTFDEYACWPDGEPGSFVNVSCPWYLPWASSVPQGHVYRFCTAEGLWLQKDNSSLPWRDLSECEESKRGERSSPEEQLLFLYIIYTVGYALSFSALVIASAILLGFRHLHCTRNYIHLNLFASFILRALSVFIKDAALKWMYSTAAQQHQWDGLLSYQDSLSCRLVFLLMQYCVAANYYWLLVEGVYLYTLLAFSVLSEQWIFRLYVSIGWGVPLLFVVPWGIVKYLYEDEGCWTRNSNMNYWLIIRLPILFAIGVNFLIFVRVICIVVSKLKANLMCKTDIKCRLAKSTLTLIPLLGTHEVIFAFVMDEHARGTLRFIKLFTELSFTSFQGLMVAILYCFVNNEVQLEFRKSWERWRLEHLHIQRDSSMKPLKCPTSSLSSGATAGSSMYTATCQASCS
T1 sequence (P47871 26-477): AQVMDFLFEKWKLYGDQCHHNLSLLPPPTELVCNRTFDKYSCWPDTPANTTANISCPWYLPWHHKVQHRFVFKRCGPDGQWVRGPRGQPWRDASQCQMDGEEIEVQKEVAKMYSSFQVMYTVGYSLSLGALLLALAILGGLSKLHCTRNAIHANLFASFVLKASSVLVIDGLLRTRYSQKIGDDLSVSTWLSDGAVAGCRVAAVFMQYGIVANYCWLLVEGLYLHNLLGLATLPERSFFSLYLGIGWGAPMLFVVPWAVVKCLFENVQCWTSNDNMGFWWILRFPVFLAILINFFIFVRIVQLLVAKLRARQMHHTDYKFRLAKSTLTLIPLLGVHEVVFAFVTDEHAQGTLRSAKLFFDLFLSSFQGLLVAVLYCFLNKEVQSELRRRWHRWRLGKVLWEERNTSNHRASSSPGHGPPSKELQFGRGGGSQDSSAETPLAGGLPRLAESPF

The EC50 is the concentration that produces a half-maximal response. For `CC[C@H](C)[C@H](NC(=O)[C@H](CO)NC(=O)[C@H](Cc1ccc(O)cc1)NC(=O)[C@H](CC(=O)O)NC(=O)[C@H](CO)NC(=O)[C@@H](NC(=O)[C@H](Cc1ccccc1)NC(=O)[C@@H](NC(=O)CNC(=O)[C@H](CCC(=O)O)NC(=O)[C@@H](C)NC(=O)[C@@H](N)Cc1ccc(O)cc1)[C@@H](C)O)[C@@H](C)CC)C(=O)N[C@@H](CC(C)C)C(=O)N[C@@H](CC(C)C)C(=O)N[C@@H](CC(=O)O)C(=O)N[C@@H](CCCCN)C(=O)N[C@@H](CCCCNC(=O)COCCOCCNC(=O)COCCOCCNC(=O)CC[C@H](NC(=O)CCCCCCCCCCCCCCCCC(=O)O)C(=O)O)C(=O)N[C@@H](C)C(=O)N[C@@H](CCC(N)=O)C(=O)NC(C)(C)C(=O)N[C@@H](CCC(=O)O)C(=O)N[C@@H](Cc1ccccc1)C(=O)N[C@H](C(=O)N[C@@H](CC(N)=O)C(=O)N[C@@H](Cc1c[nH]c2ccccc12)C(=O)N[C@@H](CC(C)C)C(=O)N[C@@H](CC(C)C)C(=O)N[C@@H](CCC(=O)O)C(=O)NCC(=O)NCC(=O)N1CCC[C@H]1C(=O)N[C@@H](CO)C(=O)N[C@@H](CO)C(=O)NCC(=O)N[C@@H](C)C(=O)N1CCC[C@H]1C(=O)N1CCC[C@H]1C(=O)N1CCC[C@H]1C(=O)N[C@@H](CO)C(N)=O)C(C)C` [Example 28] (H-Y[dA]EGTFISDYSILLDKK([AEEA-AEEA-γGlu-C18 diacid])AQ[Aib]EFVNWLLEGGPSSGAPPPS-NH2), the EC50 was above 5000 nM in assay [1], 0.0118 nM in assay [2] and above 5000 nM in assay [3].
Turning to `CC[C@H](C)[C@H](NC(=O)[C@H](CO)NC(=O)[C@H](Cc1ccc(O)cc1)NC(=O)[C@H](CC(=O)O)NC(=O)[C@H](CO)NC(=O)[C@@H](NC(=O)[C@H](Cc1ccccc1)NC(=O)[C@@H](NC(=O)CNC(=O)[C@H](CCC(=O)O)NC(=O)[C@@H](C)NC(=O)[C@@H](N)Cc1ccc(O)cc1)[C@@H](C)O)[C@@H](C)CC)C(=O)N[C@@H](CC(C)C)C(=O)N[C@@H](CC(C)C)C(=O)N[C@@H](CC(=O)O)C(=O)N[C@@H](CCCCN)C(=O)N[C@@H](CCCCNC(=O)COCCOCCNC(=O)COCCOCCNC(=O)CC[C@H](NC(=O)CCCCCCCCCCCCCCCCC(=O)O)C(=O)O)C(=O)N[C@@H](C)C(=O)N[C@@H](CCC(N)=O)C(=O)NC(C)(C)C(=O)N[C@@H](CC(=O)O)C(=O)N[C@@H](Cc1ccccc1)C(=O)N[C@H](C(=O)N[C@@H](CCC(=O)O)C(=O)N[C@@H](Cc1c[nH]c2ccccc12)C(=O)N[C@@H](CC(C)C)C(=O)N[C@@H](CC(C)C)C(=O)N[C@@H](C)C(=O)N[C@@H](CCC(N)=O)C(=O)NCC(=O)N1CCC[C@H]1C(=O)N[C@@H](CO)C(=O)N[C@@H](CO)C(=O)NCC(=O)N[C@@H](C)C(=O)N1CCC[C@H]1C(=O)N1CCC[C@H]1C(=O)N1CCC[C@H]1C(=O)N[C@@H](CO)C(N)=O)C(C)C` [Example 16] (H-Y[dA]EGTFISDYSILLDKK([AEEA-AEEA-γGlu-C18 diacid])AQ[Aib]DFVEWLLAQGPSSGAPPPS-NH2), the EC50 was above 5000 nM in assay [1], 0.00937 nM in assay [2] and above 5000 nM in assay [3].
Consider `CC[C@H](C)[C@H](NC(=O)[C@H](CCCN)NC(=O)[C@H](CC(=O)O)NC(=O)[C@H](CC(C)C)NC(=O)[C@](C)(CC(C)C)NC(=O)[C@@H](NC(=O)[C@H](CO)NC(=O)[C@H](Cc1ccc(O)cc1)NC(=O)[C@H](CC(=O)O)NC(=O)[C@H](CO)NC(=O)[C@@H](NC(=O)[C@H](Cc1ccccc1)NC(=O)[C@@H](NC(=O)CNC(=O)[C@H](CCC(=O)O)NC(=O)C(C)(C)NC(=O)[C@@H](N)Cc1ccc(O)cc1)[C@@H](C)O)[C@@H](C)CC)[C@@H](C)CC)C(=O)N[C@@H](Cc1c[nH]cn1)C(=O)N[C@@H](CCC(N)=O)C(=O)NC(C)(C)C(=O)N[C@@H](CCC(=O)O)C(=O)N[C@@H](Cc1ccccc1)C(=O)N[C@H](C(=O)N[C@@H](CCC(=O)O)C(=O)N[C@@H](Cc1ccc(O)cc1)C(=O)N[C@@H](CCCCNC(=O)COCCOCCNC(=O)COCCOCCNC(=O)CC[C@H](NC(=O)CCCCCCCCCCCCCCCCCCC(=O)O)C(=O)O)C(=O)N[C@@H](CC(C)C)C(=O)N[C@@H](CCC(=O)O)C(=O)NCC(=O)NCC(=O)N1CCC[C@H]1C(=O)N[C@@H](CO)C(=O)N[C@@H](CO)C(=O)NCC(=O)N[C@@H](C)C(=O)N1CCC[C@H]1C(=O)N1CCC[C@H]1C(=O)N1CCC[C@H]1C(=O)N[C@@H](CO)C(N)=O)C(C)C` [Example 107] (H-Y[Aib]EGTFISDYSI[αMeL]LD[Orn]IHQ[Aib]EFVEYK([AEEA-AEEA-γGlu-C20 diacid])LEGGPSSGAPPPS-NH2), for which the results for the concentration giving a half-maximal response (EC50) in assay [1], in assay [2] and in assay [3] were above 5000 nM, 0.0199 nM and above 5000 nM, respectively.
As to `CC[C@H](C)[C@H](NC(=O)[C@H](CCCN)NC(=O)[C@H](CC(=O)O)NC(=O)[C@H](CC(C)C)NC(=O)[C@](C)(CC(C)C)NC(=O)[C@@H](NC(=O)[C@H](CO)NC(=O)[C@H](Cc1ccc(O)cc1)NC(=O)[C@H](CC(=O)O)NC(=O)[C@H](CO)NC(=O)[C@@H](NC(=O)[C@H](Cc1ccccc1)NC(=O)[C@@H](NC(=O)CNC(=O)[C@H](CCC(=O)O)NC(=O)C(C)(C)NC(=O)[C@@H](N)Cc1ccc(O)cc1)[C@@H](C)O)[C@@H](C)CC)[C@@H](C)CC)C(=O)N[C@@H](Cc1c[nH]cn1)C(=O)N[C@@H](CCC(N)=O)C(=O)NC(C)(C)C(=O)N[C@@H](CC(=O)O)C(=O)N[C@@H](Cc1ccccc1)C(=O)N[C@H](C(=O)N[C@@H](CCC(=O)O)C(=O)N[C@@H](Cc1ccncc1)C(=O)N[C@@H](CCCCNC(=O)COCCOCCNC(=O)COCCOCCNC(=O)CC[C@H](NC(=O)CCCCCCCCCCCCCCCCCCC(=O)O)C(=O)O)C(=O)N[C@@H](CC(C)C)C(=O)N[C@@H](CCC(=O)O)C(=O)NCC(=O)NCC(=O)N1CCC[C@H]1C(=O)N[C@@H](CO)C(=O)N[C@@H](CO)C(=O)NCC(=O)N[C@@H](C)C(=O)N1CCC[C@H]1C(=O)N1CCC[C@H]1C(=O)N1CCC[C@H]1C(=O)N[C@@H](CO)C(N)=O)C(C)C` [Example 108] (H-Y[Aib]EGTFISDYSI[αMeL]LD[Orn]IHQ[Aib]DFVE[4Pal]K([AEEA-AEEA-γGlu-C20 diacid])LEGGPSSGAPPPS-NH2), the figures for the EC50 in assay [1], in assay [2] and in assay [3] were above 5000 nM, 0.0088 nM and above 5000 nM, respectively.
As to `CC[C@H](C)[C@H](NC(=O)[C@H](Cc1ccccc1)NC(=O)[C@@H](NC(=O)CNC(=O)[C@H](CCC(=O)O)NC(=O)C(C)(C)NC(=O)[C@@H](N)Cc1ccc(O)cc1)[C@@H](C)O)C(=O)N[C@@H](CO)C(=O)N[C@@H](CC(=O)O)C(=O)N[C@@H](Cc1ccc(O)cc1)C(=O)N[C@@H](CO)C(=O)N[C@H](C(=O)N[C@@](C)(CC(C)C)C(=O)N[C@@H](CC(C)C)C(=O)N[C@@H](CC(=O)O)C(=O)N[C@@H](CCCCN)C(=O)N[C@@H](CCCCNC(=O)COCCOCCNC(=O)COCCOCCNC(=O)CC[C@H](NC(=O)CCCCCCCCCCCCCCCCCCC(=O)O)C(=O)O)C(=O)N[C@@H](Cc1c[nH]cn1)C(=O)N[C@@H](CCC(N)=O)C(=O)NC(C)(C)C(=O)N[C@@H](CC(=O)O)C(=O)N[C@@H](Cc1ccccc1)C(=O)N[C@H](C(=O)N[C@@H](CCC(=O)O)C(=O)N[C@@H](Cc1ccncc1)C(=O)N[C@@H](CC(C)C)C(=O)N[C@@H](CC(C)C)C(=O)N[C@@H](CCC(=O)O)C(=O)N[C@@H](C)C(=O)NCC(=O)N1CCC[C@H]1C(=O)N[C@@H](CO)C(=O)N[C@@H](CO)C(=O)NCC(=O)N[C@@H](C)C(=O)N1CCC[C@H]1C(=O)N1CCC[C@H]1C(=O)N1CCC[C@H]1C(=O)N[C@@H](CO)C(N)=O)C(C)C)[C@@H](C)CC` [Example 3], the EC50 was 1250 nM in assay [1], 0.0178 nM in assay [2] and above 5000 nM in assay [3].
